Patent US7932270B2 (Cytokinetics, Inc., priority 2006, dated 2011)

Biological target: T1, chicken gizzard smooth muscle myosin subfragment-1 chemically crosslinked to cardiac or skeletal actin (Gallus gallus, UniProt P10587)
T1 construct: chicken gizzard smooth muscle myosin subfragment-1; from tissue; host or cells: chicken gizzard
Experiment: Smooth muscle myosin ATPase dose response assay (pyruvate kinase/horseradish peroxidase/pyruvate oxidase-coupled, amplex red fluorescence)
Assay type: biochemical
Settings: read-out: IC50 Arithmetic Mean
Outline: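 EDC/NHS-crosslinked S1–actin, amount set per prep by rate titration. Buffer: 12 mM K-PIPES pH 7.00 (22° C), 100 mM KCl, 2 mM MgCl2, 0.15 mM ATP, 0.1 mM PEP, 2 mM KPi, 0.1 mM amplex red. Read ex 480/em 615 nm; IC50 = midpoint, 4-param Hill fit.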

T1 sequence (P02607 2-151): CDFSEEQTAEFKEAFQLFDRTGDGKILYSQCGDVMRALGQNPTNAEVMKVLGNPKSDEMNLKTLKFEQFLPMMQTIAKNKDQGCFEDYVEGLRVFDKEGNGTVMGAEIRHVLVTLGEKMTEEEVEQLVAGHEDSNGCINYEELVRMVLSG
T1 sequence (P10587 84-789): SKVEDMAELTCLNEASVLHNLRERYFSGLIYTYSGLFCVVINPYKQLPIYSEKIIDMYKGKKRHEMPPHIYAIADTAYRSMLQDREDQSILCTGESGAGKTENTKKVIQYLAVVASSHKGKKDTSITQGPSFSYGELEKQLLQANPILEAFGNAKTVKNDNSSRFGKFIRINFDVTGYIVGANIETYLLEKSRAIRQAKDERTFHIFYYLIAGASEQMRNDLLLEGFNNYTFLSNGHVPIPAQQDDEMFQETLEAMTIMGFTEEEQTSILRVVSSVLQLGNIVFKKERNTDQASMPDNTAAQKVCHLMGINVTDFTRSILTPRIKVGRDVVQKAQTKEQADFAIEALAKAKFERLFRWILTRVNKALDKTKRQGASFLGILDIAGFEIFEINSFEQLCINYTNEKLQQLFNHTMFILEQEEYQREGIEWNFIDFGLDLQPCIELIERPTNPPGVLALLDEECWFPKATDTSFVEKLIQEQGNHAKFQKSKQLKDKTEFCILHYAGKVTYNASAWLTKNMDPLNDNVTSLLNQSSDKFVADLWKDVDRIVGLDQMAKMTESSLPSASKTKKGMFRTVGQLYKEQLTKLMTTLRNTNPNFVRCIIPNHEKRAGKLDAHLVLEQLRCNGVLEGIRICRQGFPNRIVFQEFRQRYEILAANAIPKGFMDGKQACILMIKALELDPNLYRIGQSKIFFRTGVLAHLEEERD

SMILES | IC50 [µM]
N#Cc1ccccc1-c1ccc(C(=O)NCc2cccnc2)c(NCC(O)c2cccc(F)c2)n1 (stereo not shown) [(6-(2-cyanophenyl)-2-{[2-(3-fluorophenyl)-2-hydroxyethyl]amino}(3-pyridyl))-N-(3-pyridylmethyl)carboxamide] | 0.339
O=C1CNC[C@@H](CNC(=O)c2ccc(-c3cc[nH]n3)nc2NCCc2cccc(F)c2)N1 [N-[((2S)-6-oxopiperazin-2-yl)methyl](2-{[2-(3-fluorophenyl)ethyl]amino}-6-pyrazol-3-yl(3-pyridyl))carboxamide] | 6.39
Cc1ccc(-c2ccc(C(=O)NCc3cccnc3)c(NCCc3cccc(F)c3)n2)c(C#N)c1 [(6-(2-cyano-4-methylphenyl)-2-{[2-(3-fluorophenyl)ethyl]amino}(3-pyridyl))-N-(3-pyridylmethyl)carboxamide] | 0.996
NCc1ncccc1CNC(=O)c1ccc(-c2cnn(CCO)c2)nc1NCCc1cccc(F)c1 [N-{[2-(aminomethyl)(3-pyridyl)]methyl}(2-{[2-(3-fluorophenyl)ethyl]amino}-6-[1-(2-hydroxyethyl)pyrazol-4-yl](3-pyridyl))carboxamide] | 0.707
C[C@@H](CNC(=O)CN)CNC(=O)c1cc(F)c(-c2cnn(C)c2)nc1NCCc1cccc(F)c1 [N-{(2R)-3-[(5-fluoro-2-{[2-(3-fluorophenyl)ethyl]amino}-6-(1-methylpyrazol-4-yl)(3-pyridyl))carbonylamino]-2-methylpropyl}-2-aminoacetamide] | 0.152
CC(C)(C)OC(=O)NCCC(=O)N1CCC[C@@H]1CNC(=O)c1cc(F)c(-c2cn[nH]c2)nc1NCCc1cccc(F)c1 [N-[((2R)-1-{3-[(tert-butoxy)carbonylamino]propanoyl}pyrrolidin-2-yl)methyl](5-fluoro-2-{[2-(3-fluorophenyl)ethyl]amino}-6-pyrazol-4-yl(3-pyridyl))carboxamide] | 0.98
COC(=O)[C@H](C)CNC(=O)c1cc(F)c(-c2cnn(C)c2)nc1N [methyl (2R)-3-{[2-amino-5-fluoro-6-(1-methylpyrazol-4-yl)(3-pyridyl)]carbonylamino}-2-methylpropanoate] | 86
COC(=O)[C@H](CN)NC(=O)c1ccc(-c2ccccc2C#N)nc1NCCc1cccc(F)c1 [methyl (2S)-3-amino-2-[(6-(2-cyanophenyl)-2-{[2-(3-fluorophenyl)ethyl]amino}(3-pyridyl))carbonylamino]propanoate] | 2.32
C[C@H](CNC(=O)c1cc(F)c(-c2cnn(C)c2)nc1NCCc1cccc(F)c1)C(N)=O [N-((2R)-2-carbamoylpropyl)(5-fluoro-2-{[2-(3-fluorophenyl)ethyl]amino}-6-(1-methylpyrazol-4-yl)(3-pyridyl))carboxamide] | 0.089
N#Cc1ccccc1-c1ccc(C(=O)NC[C@H](N)CO)c(NCCc2cccc(F)c2)n1 [N-((2S)-2-amino-3-hydroxypropyl)(6-(2-cyanophenyl)-2-{[2-(3-fluorophenyl)ethyl]amino}(3-pyridyl))carboxamide] | 1.59
N#Cc1ccccc1-c1ccc(C(=O)NC[C@H]2CCCN2C(=O)[C@@H](N)CO)c(NCCc2cccc(F)c2)n1 [N-{[(2R)-1-((2S)-2-amino-3-hydroxypropanoyl)pyrrolidin-2-yl]methyl}(6-(2-cyanophenyl)-2-{[2-(3-fluorophenyl)ethyl]amino}(3-pyridyl))carboxamide] | 0.173
Cn1cc(-c2nc(NCCc3cccc(F)c3)c(C(=O)NC[C@@H](N)CO)cc2F)cn1 [N-((2R)-2-amino-3-hydroxypropyl)(5-fluoro-2-{[2-(3-fluorophenyl)ethyl]amino}-6-(1-methylpyrazol-4-yl)(3-pyridyl))carboxamide] | 1.26
C[C@@H](CNC(=O)c1ccc(-c2ccccc2C#N)nc1NCCc1cccc(F)c1)N(C)C(=O)CN | 3.25
O=C(NCc1cccnc1)c1ccc(-c2ccccc2)nc1NCCc1ccccc1F [(2-{[2-(2-fluorophenyl)ethyl]amino}-6-phenyl(3-pyridyl))-N-(3-pyridylmethyl)carboxamide] | 0.107
O=C(NCc1ncco1)c1ccc(-c2ccccc2)nc1NCCc1ccccn1 [N-(1,3-oxazol-2-ylmethyl){6-phenyl-2-[(2-(2-pyridyl)ethyl)amino](3-pyridyl)}carboxamide] | 4.9
Cn1cc(-c2ccc(C(=O)NC[C@H]3CCCN3C(=O)CCCO)c(NCCc3cccc(F)c3)n2)cn1 [N-{[(2R)-1-(4-hydroxybutanoyl)pyrrolidin-2-yl]methyl}(2-{[2-(3-fluorophenyl)ethyl]amino}-6-(1-methylpyrazol-4-yl)(3-pyridyl))carboxamide] | 1.46
CS(=O)(=O)NCC1CCCCN1C(=O)c1ccc(-c2ccccc2)nc1NCCc1ccccn1 (stereo not shown) [2-{[(methylsulfonyl)amino]methyl}piperidyl 6-phenyl-2-[(2-(2-pyridyl)ethyl)amino](3-pyridyl) ketone] | 22.2

SMILES | IC50 [µM]
O=C(NCc1cccnc1)c1ccc(-c2nccs2)nc1NCCc1ccccn1 [{2-[(2-(2-pyridyl)ethyl)amino]-6-(1,3-thiazol-2-yl)(3-pyridyl)}-N-(3-pyridylmethyl)carboxamide] | 8.66
CN(C)C(=NCc1cncc(CNC(=O)c2ccc(-c3ccccc3C#N)nc2NCCc2cccc(F)c2)c1)N(C)C [N-({5-[3,3-bis(dimethylamino)-2-azaprop-2-enyl](3-pyridyl)}methyl)(6-(2-cyanophenyl)-2-{[2-(3-fluorophenyl)ethyl]amino}(3-pyridyl))carboxamide] | 2.72
CN1CC(=O)N[C@@H](CNC(=O)c2ccc(-c3ccccc3C#N)nc2NCCc2cccc(F)c2)C1 (stereo in doubt) [(6-(2-cyanophenyl)-2-{[2-(3-fluorophenyl)ethyl]amino}(3-pyridyl))-N-[(4-methyl-6-oxopiperazin-2-yl)methyl]carboxamide] | 0.037
N#Cc1ccccc1-c1ccc(C(=O)NCC2CCCC(=O)N2CCCN)c(NCCc2cccc(F)c2)n1 (stereo not shown) [N-{[1-(3-aminopropyl)-6-oxo(2-piperidyl)]methyl}(6-(2-cyanophenyl)-2-{[2-(3-fluorophenyl)ethyl]amino}(3-pyridyl))carboxamide] | 0.025
NCCCNc1cccc(CNC(=O)c2ccc(-c3cn[nH]c3)nc2NCCc2cccc(F)c2)n1 [N-({6-[(3-aminopropyl)amino](2-pyridyl)}methyl)(2-{[2-(3-fluorophenyl)ethyl]amino}-6-pyrazol-4-yl(3-pyridyl))carboxamide] | 0.018
N#Cc1ccccc1-c1ccc(C(=O)NC[C@@H]2CCCN(C(=O)CN)C2)c(NCCc2cccc(F)c2)n1 [N-{[(3S)-1-(2-aminoacetyl)(3-piperidyl)]methyl}(6-(2-cyanophenyl)-2-{[2-(3-fluorophenyl)ethyl]amino}(3-pyridyl))carboxamide] | 0.755
C[C@H](NC(=O)OC(C)(C)C)C(=O)N1CCC[C@@H]1CNC(=O)c1ccc(-c2ccccc2C#N)nc1NCCc1cccc(F)c1 [N-[2-((2R)-2-{[(6-(2-cyanophenyl)-2-{[2-(3-fluorophenyl)ethyl]amino}(3-pyridyl))carbonylamino]methyl}pyrrolidinyl)(1S)-1-methyl-2-oxoethyl](tert-butoxy)carboxamide] | 3.26
N#Cc1ccccc1-c1ccc(C(=O)NCC2CCCCCN2C(=O)CCCN)c(NCCc2cccc(F)c2)n1 (stereo not shown) [N-{[1-(4-aminobutanoyl)azaperhydroepin-2-yl]methyl}(6-(2-cyanophenyl)-2-{[2-(3-fluorophenyl)ethyl]amino}(3-pyridyl))carboxamide] | 0.383
N#Cc1ccccc1-c1ccc(C(=O)NC[C@@H]2CCCCN2C(=O)CCN)c(NCCc2cccc(F)c2)n1 [N-{[(2S)-1-(3-aminopropanoyl)(2-piperidyl)]methyl}(6-(2-cyanophenyl)-2-{[2-(3-fluorophenyl)ethyl]amino}(3-pyridyl))carboxamide] | 0.109
O=C(NCc1cccnc1)c1ccc(-c2ccsc2)nc1NCCc1cc(F)cc(F)c1 [(2-{[2-(3,5-difluorophenyl)ethyl]amino}-6-(3-thienyl)(3-pyridyl))-N-(3-pyridylmethyl)carboxamide] | 0.04
C[C@H](CNC(=O)c1cc(F)c(-c2cnn(C)c2)nc1NCCc1cccc(F)c1)NC(=O)CO | 0.197
CC(C)(C)OC(=O)N1CCC[C@@H]1CNC(=O)c1ccc(-c2ccccc2C#N)nc1NCCc1cccc(F)c1 [tert-butyl (2R)-2-{[(6-(2-cyanophenyl)-2-{[2-(3-fluorophenyl)ethyl]amino}(3-pyridyl))carbonylamino]methyl}pyrrolidinecarboxylate] | 1.93
CN(CCNC(=O)c1ccc(-c2ccccc2C#N)nc1NCCc1cccc(F)c1)C(=O)CN [2-amino-N-{2-[(6-(2-cyanophenyl)-2-{[2-(3-fluorophenyl)ethyl]amino}(3-pyridyl))carbonylamino]ethyl}-N-methylacetamide] | 1.37
CC(C)(C)OC(=O)N[C@@H](CCCN)C(=O)N1CC[C@@H]1CNC(=O)c1ccc(-c2ccccc2C#N)nc1NCCc1cccc(F)c1 [N-[2-((2R)-2-([(6-(2-cyanophenyl)-2-{[2-(3-fluorophenyl)ethyl]amino}(3-pyridyl))carbonylamino]methyl}azetidinyl)(1S)-1-(3-aminopropyl)-2-oxoethyl](tert-butoxy)carboxamide] | 1.35
N#Cc1ccccc1-c1ccc(C(=O)NC[C@H]2CN(CCCN)CC(=O)N2)c(NCCc2cccc(F)c2)n1 [N-{[(2S)-4-(3-aminopropyl)-6-oxopiperazin-2-yl]methyl}(6-(2-cyanophenyl)-2-{[2-(3-fluorophenyl)ethyl]amino}(3-pyridyl))carboxamide] | 2.81
N#Cc1ccccc1-c1ccc(C(=O)NCCCCN)c(NCCc2cccc(F)c2)n1 [N-(4-aminobutyl)(6-(2-cyanophenyl)-2-{[2-(3-fluorophenyl)ethyl]amino}(3-pyridyl))carboxamide] | 0.416
N#Cc1ccccc1-c1ccc(C(=O)N[C@@H](CO)C(N)=O)c(NCCc2cccc(F)c2)n1 [N-((1S)-1-carbamoyl-2-hydroxyethyl)(6-(2-cyanophenyl)-2-{[2-(3-fluorophenyl)ethyl]amino}(3-pyridyl))carboxamide] | 1.02
